Assay results from US10538497B2, “Compounds as indoleamine 2,3-dioxygenase inhibitors” (Merck Sharp & Dohme Corp., priority 2015, dated 2020).

Key:
IDO1 [1] = target: T1, IDO1 (Homo sapiens (Human), UniProt P14902); assay: IDO1 In Vivo Assay (hIDO1-CT26 murine model); design: species or system mouse; conditions: oral administration, 100 and 300 mg/kg
Method: hIDO1-CT26, a murine cell line generated in house to constitutively express the human IDO1 protein, was cultured in RPMI-1640+10% FBS+500 μM L-tryptophan in a standard cell incubator (37° C., 5% CO2). At 80% confluency, cells are rinsed in TrypLE, then incubated with TrypLE until fully detached (usually 1-5 min), resuspended in complete media, spun down (1000 rpm, 4° C., 5 min), and resuspended in phenol red-free RPMI-1640 before counting.
Two millions hIDO1-CT26 cells (20×10E6 cells/ml) in 50% phenol red-free RPMI-1640/50% Matrigel (growth factor reduced, GFR) are implanted subcutaneously in the right flank of anesthetized immunocompromised animals (CD-1 Nu/Nu, Charles River Labs). Ten days following implantation, tumors reach an average volume of 180 mm^3 at which point animals are randomized into treatment groups.
Animals are treated with IDO1 inhibitors by oral gavage (PO) every 12 h (BID dosing). Based on experimental design, animals will receive a minimum of 1 dose. At various times following the last dose, animals will be euthanized (CO2 asphyxiation), blood will be collected via cardiac puncture for plasma, and tumors will be resected. For plasma preparation, whole blood is transferred to plasma tube, and stored on ice prior to centrifugation. […]

IDO1 [2] = target: T1, IDO1; assay: IDO1 Enzyme Assay; conditions: read-out: IDO1 Enzyme Assay, IC50; HIS-tagged recombinant IDO1, 40 nM
IDO1 [3] = target: T1, IDO1; assay: IDO1 Cellular Assay in Frozen HEK293 Cells Transiently Transfected with Human IDO1; assay type: cell-based; conditions: HEK293 cells transiently transfected with human IDO1; read-out: IDO1 HEK293 Cell Assay, IC50

T1 sequence (P14902 whole entry): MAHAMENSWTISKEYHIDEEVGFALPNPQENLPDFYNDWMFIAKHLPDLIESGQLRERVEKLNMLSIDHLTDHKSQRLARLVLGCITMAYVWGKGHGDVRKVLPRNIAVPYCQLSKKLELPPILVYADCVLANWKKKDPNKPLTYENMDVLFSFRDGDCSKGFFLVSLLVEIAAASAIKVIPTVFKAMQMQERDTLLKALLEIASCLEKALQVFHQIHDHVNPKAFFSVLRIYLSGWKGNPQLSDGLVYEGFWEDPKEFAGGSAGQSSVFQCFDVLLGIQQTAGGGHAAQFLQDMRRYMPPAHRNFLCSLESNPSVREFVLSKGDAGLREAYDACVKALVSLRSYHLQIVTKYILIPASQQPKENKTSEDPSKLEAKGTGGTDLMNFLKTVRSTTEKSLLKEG

Row | Compound | kynurenine levels in both plasma and tumor (IDO1 [1]) | IC50 (IDO1 [2]) [nM] | IC50 (IDO1 [3]) [nM]
1 | O=C(CSc1nonc1/C(=N/O)Nc1ccc(F)c(Br)c1)NC[C@@H](O)CO [Example 42, (R)-2-((4-(N-(3-bromo-4-fluorophenyl)-N′-hydroxycarbamimidoyl)-1,2,5-oxadiazol-3-yl)thio)-N-(2,3-dihydroxypropyl)acetamide] | dose-dependent reduction | 47.7 | 59.6
2 | NC(=O)NCCSc1nonc1/C(=N/O)Nc1ccc(F)c(Br)c1 [Example 46, N-(3-Bromo-4-fluorophenyl)-N′-hydroxy-4-((2-ureidoethyl)thio)-1,2,5-oxadiazole-3-carboximidamide] | dose-dependent reduction | 33.9 | 16.9
